Experimental data from article PMC11505029, “Isatin Bis-Imidathiazole Hybrids Identified as FtsZ Inhibitors with On-Target Activity Against Staphylococcus aureus” (Antibiotics, 2024).
“Also recorded” adds a separate entry of the source.

Assays:
S. aureus ATCC 25923 = test: broth microdilution antimicrobial activity, S. aureus reference strain; format: cell-based, Staphylococcus aureus
Method: (§1) Reference bacterial strains of Staphylococcus aureus (ATCC 25923), Escherichia coli (ATCC 25922), and Candida albicans (ATCC 10231) were used in this study as Gram-positive, Gram-negative, and fungal models, respectively. These reference strains were purchased from the American Type Culture Collection (ATCC, Manassas, VA, USA); bacterial cultures were routinely grown at 37 °C on 5% blood agar plate, while fungal cultures on Sabouraud Dextrose Agar (Biolife Italiana S.r.l., Milan, Italy).
(§2) The dry powder of the isatin derivatives was resuspended in dimethylsulfoxide (DMSO) at 20 mM and used as stock solutions. For biological investigations, compounds were used in the range 100–0.78 µM, and the solvent in the corresponding percentage range.
(§3) The antimicrobial activity of the compounds was assessed by a well-established broth microdilution procedure in microtiter plates and in compliance with the Clinical and laboratory Standard Institute (CLSI) guidelines (Clinical and Laboratory Standards Institute, Wayne, PA, USA). In short, microbial inocula were prepared at 0.5 McFarland in PBS and, subsequently, bacterial suspensions were diluted 1:200 in Mueller–Hinton broth (Sigma-Aldrich, St. Louis, MO, USA), while fungal inoculum was diluted 1:20 in RPMI-1640 medium (Gibco®, ThermoFisher Scientific Inc., Waltham, MA, USA), containing 2% glucose and 0.3% levo-glutamine buffered to pH 7.0 with 0.165 M 3-(N-morpholino)propanesulfonic acid (MOPS). A total of 100 µL of these microbial suspensions were introduced in a 96-well microplate and incubated with 100 µL of the compounds, two-fold serially diluted in the range of 100–0.19 µM. Positive controls (microbial suspensions in regular media), negative controls (only compounds), and solvent controls (microbial suspensions incubated with DMSO dilutions) were included in the tests. The plate was incubated at 37 °C for 24 h, and subsequently, the optical density at 630 nm (OD630nm) was spectrophotometrically measured. Each experiment was carried out with three technical replicates (i.e., three wells per sample) and repeated at least two times for statistical power. […] IC50 values, corresponding to the concentration of the compound giving rise to an inhibition of growth of 50%, were obtained by interpolation on dose–response curves generated by plotting the percentages of growth inhibition, relative to the positive control (set to 100% of growth), as a function of the tested concentrations (on a logarithm scale). Statistical analysis was carried out using GraphPad Prism version 9.4.1 for Windows (GraphPad Software, San Diego, CA, USA, www.graphpad.com).

E. coli ATCC 25922 = test: broth microdilution antimicrobial activity, E. coli reference strain; format: cell-based, Escherichia coli; settings: 100 μM, growth relative to positive control, mean ± SD
Method: as §1, §2, §3

C. albicans ATCC 10231 = test: broth microdilution antimicrobial activity, C. albicans reference strain; format: cell-based, Candida albicans; settings: 100 μM, growth relative to positive control, mean ± SD
Method: as §1, §2, §3

[1] = tested on: human red blood cells (hRBCs); test: hemolytic assay; format: cell-based; settings: for Hemolytic activity, percentage values: mean ± SD
Method: The hemolytic activity of some selected compounds was evaluated as the amount of hemoglobin released by the disruption of human red blood cells (hRBCs). For the experiments, fresh hRBCs, obtained from peripheral blood of anonymous blood donors available for research purposes, were collected by centrifugation at 1500 g for 10 min, washed 3 times with PBS, and resuspended to a final concentration of 4% w/v hRBCs in PBS. Then, 100 µL of hRBCs suspension and an equal volume of the 2-fold dilutions of the […] were mixed in a 96-well plate and incubated for 1 h at 37 °C. […] Untreated hRBCs (incubated with PBS) and hRBCs incubated with 1% Triton X-100 were employed as negative and positive controls, respectively. The hemolysis percentage was calculated as [OD405nm (sample) − OD405nm (negative control)]/[OD405nm (positive control) − OD405nm (negative control)] × 100. Minimal hemolytic concentrations (MHCs) were defined as the compound concentrations causing 10% hemolysis.

S. aureus MRSA 2 = test: dose-response against clinical isolate MRSA 2; format: cell-based; settings: Staphylococcus aureus, mean [95% confidence interval]
Method: (§4) The antimicrobial activity of the compounds was assessed by a well-established broth microdilution procedure in microtiter plates and in compliance with the Clinical and laboratory Standard Institute (CLSI) guidelines (Clinical and Laboratory Standards Institute, Wayne, PA, USA). In short, microbial inocula were prepared at 0.5 McFarland in PBS and, subsequently, bacterial suspensions were diluted 1:200 in Mueller–Hinton broth (Sigma-Aldrich, St. Louis, MO, USA), while fungal inoculum was diluted 1:20 in RPMI-1640 medium (Gibco®, ThermoFisher Scientific Inc., Waltham, MA, USA), containing 2% glucose and 0.3% levo-glutamine buffered to pH 7.0 with 0.165 M 3-(N-morpholino)propanesulfonic acid (MOPS). A total of 100 µL of these microbial suspensions were introduced in a 96-well microplate and incubated with 100 µL of the compounds, two-fold serially diluted in the range of 100–0.19 µM. Positive controls (microbial suspensions in regular media), negative controls (only compounds), and solvent controls (microbial suspensions incubated with DMSO dilutions) were included in the tests. The plate was incubated at 37 °C for 24 h, and subsequently, the optical density at 630 nm (OD630nm) was spectrophotometrically measured. Each experiment was carried out with three technical replicates (i.e., three wells per sample) and repeated at least two times for statistical power. […]

S. aureus MRSA 3 = test: dose-response against clinical isolate MRSA 3; format: cell-based; settings: Staphylococcus aureus, mean [95% confidence interval]
Method: as §4

S. aureus MRSA 5 = test: dose-response against clinical isolate MRSA 5; format: cell-based; settings: Staphylococcus aureus, mean [95% confidence interval]
Method: as §4

[2] = tested on: S. aureus ATCC 25923 biofilm; test: antibiofilm activity, crystal violet staining; format: cell-based, Staphylococcus aureus; settings: 200–25 µM; inhibition of biofilm production; CV staining
Method: For the evaluation of the bacterial biofilm formation, an established protocol with minor modifications was used. In short, a bacterial suspension of S. aureus ATCC 25923 was prepared in TSB (Tryptic Soy broth (TSB, Sigma-Aldrich, St. Louis, MO, USA) supplemented with 1% of glucose and adjusted to a final density of 10^5 CFU/mL. Aliquots of 100 µL of the culture were transferred to a 96-well flat-bottom polystyrene microplate, and then incubated at 37 °C for 90 min to promote bacterial adhesion. Thereafter, wells were slowly rinsed with PBS to remove non-attached cells, and 100 µL of medium containing the 2-fold serial dilutions of the compounds were added. After incubation at 37 °C for 24 h, the free-floating cells were removed, and the biofilms were carefully washed with PBS, and incubated for 1 h at 60 °C. Bacterial biomass was quantified by a standardized crystal violet (CV) staining. Briefly, 100 µL of CV solution (0.1% in water) were added to each well containing a completely air-dried biofilm, and incubated for 30 min at 37 °C. […] Finally, the colored supernatants were transferred to a new microplate and the OD550nm was read. The inhibitory effect of the compounds on biofilm production was evaluated in comparison to the positive control (S. aureus grown in absence of compounds), and negative control (only medium).

IC50 (S. aureus ATCC 25923; Staphylococcus aureus, ATCC25923, S. aureus ATCC 25923, mean [95% confidence interval]): 13.8 µM
IC50 (S. aureus MRSA 2): 27.5 µM
IC50 (S. aureus MRSA 3): 8.7 µM
IC50 (S. aureus MRSA 5): 21.2 µM
SMILES: O=C1Nc2cc(OC(F)(F)F)ccc2C1(c1c(Cl)nc2sccn12)c1c(Cl)nc2sccn12 [Compound 11, 3,3-bis(6-Chloroimidazo[2,1-b]thiazol-5-yl)-6-(trifluoromethoxy)indolin-2-one]
SI (selectivity index, CC50/IC50) (S. aureus ATCC 25923; CC50 Vero / IC50 S. aureus): 4.6
Microbial growth, E. coli (E. coli ATCC 25922): did not inhibit the growth
activity at 100 µM (E. coli ATCC 25922; Escherichia coli, ATCC25922, read-out: Microbial growth, E. coli): 108 ± 2.4%
Microbial growth, C. albicans (C. albicans ATCC 10231): did not inhibit the growth
activity at 100 µM (C. albicans ATCC 10231; Candida albicans, ATCC10231, read-out: Microbial growth, C. albicans): 108 ± 8.5%
Hemolytic activity, percentage values ([1]; 1.56 µM): 0.9 ± 1.8%
Hemolytic activity, percentage values ([1]; 3.125 µM): 1.1 ± 1.2%
Hemolytic activity, percentage values ([1]; 6.25 µM): 2.3 ± 0.2%
Hemolytic activity, percentage values ([1]; 12.5 µM): 2.2 ± 0.5%
Hemolytic activity, percentage values ([1]; 25 µM): 1.8 ± 1.5%
Hemolytic activity, percentage values ([1]; 50 µM): 0.7 ± 1.5%
Hemolytic activity, percentage values ([1]; 100 µM): 1.1 ± 0.4%
hemolytic activity ([1]; range 100–1.56 µM): did not show an appreciable hemolytic activity; also recorded: no hemolytic property
biofilm biomass compared to the untreated control [2]: < 10%
